Experimental data as given in US5856529A, “Benzofuran and dihydrobenzofuran melatonergic agents” (Bristol-Myers Squibb Company, priority 1997, dated 1999).

Target: T1, ML1a human melatonin receptor (Homo sapiens, UniProt P48039)
T1 construct: expressed in transfected cells
Test: Melatonergic Receptor Binding Activity (2-[125I]-iodomelatonin, membranes of NIH-3T3 cells expressing ML1a receptor)
Conditions: 37° C. for 1 hour, read-out: Melatonin Binding Affinity (IC50)
Procedure: Melatonergic Receptor Binding Activity
(a) TME=50 mM Tris buffer containing 12.5 mM MgCl2, and 2 mM EDTA, pH 7.4 at 37° C. with concentrated HCl.
(b) Wash buffer: 20 mM Tris base containing 2 mM MgCl2, pH 7.4 at room temperature.
(c) 10^-4 M melatonin (10^-5 M final concentration).
(d) 2-[^125 I]-iodomelatonin, […] final concentration
The melatonin ML1a receptor cDNA was subcloned into pcDNA3 and introduced into NIH-3T3 cells using Lipofectamine. Transformed NIH-3T3 cells resistant to geneticin (G-418) were isolated, and single colonies expressing high levels of 2[^125 I]-iodomelatonin binding were isolated. Cells are maintained in DMEM supplemented with 10% calf serum and G-418 (0.5 g/liter). Cells are grown to confluency in T-175 flasks, scraped using Hank's balanced salt solution, and frozen at -80° C. For preparing membrane homogenates, pellets are thawed on ice, and resuspended in TME buffer in the presence of 10 μg/ml aprotinin and leupeptin, and 100 μM phenylmethylsulfonylfluoride. The cells were then homogenized using a dounce homogenizer, and centrifuged. The resulting pellet was resuspended with dounce homogenizer in TME (supplemented with the above protease inhibitors) and frozen. On the day of assay, the small aliquot was thawed on ice and resuspended in ice cold TME (1:50-1:100 v/v) and held on ice until assayed.
3. Incubation: 37° C. for 1 hour. Reaction is terminated by filtration. Filters are washed 3 times.

T1 sequence (P48039 whole entry): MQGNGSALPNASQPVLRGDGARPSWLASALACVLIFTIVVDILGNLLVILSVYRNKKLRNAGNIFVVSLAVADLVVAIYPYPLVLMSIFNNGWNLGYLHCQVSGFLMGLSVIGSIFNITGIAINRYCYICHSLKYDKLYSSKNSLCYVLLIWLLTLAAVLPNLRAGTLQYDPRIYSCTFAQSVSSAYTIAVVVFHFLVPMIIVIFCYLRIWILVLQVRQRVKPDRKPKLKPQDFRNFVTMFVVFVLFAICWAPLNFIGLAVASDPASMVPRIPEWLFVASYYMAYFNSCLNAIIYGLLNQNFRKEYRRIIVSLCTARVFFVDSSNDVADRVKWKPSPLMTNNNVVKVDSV

| Structure (SMILES) | IC50 |
| --- | --- |
| CC(=O)NC[C@@H]1C[C@H]1c1cccc2c1OCO2 (relative stereo) [Example 3, (trans)-N-[[2-(1,3-benzodioxol-4-yl)cycloprop-1-yl]methyl]acetamide] | < 10 nM |
| CC(C)C(=O)NC[C@@H]1C[C@H]1c1cccc2c1OCO2 (relative stereo) [Example 11, (trans)-N-[[2-(1,3-benzodioxol-4-yl)cycloprop-1-yl]methyl]-2-methylpropanamide] | 10 to 100 nM |
| O=C(NC[C@@H]1C[C@H]1c1cccc2c1OCCO2)C1CC1 (relative stereo) [Example 18, (trans)-N-[[2-(2,3-dihydro-1,^4-benzodioxin-5-yl)cycloprop-1-yl]-methyl]cyclopropane carboxamide] | 10 to 100 nM |
| CCC(=O)NC[C@@H]1C[C@H]1c1cccc2occc12 (relative stereo) [Example 23, (trans)-N-[[2-(benzofuran-4-yl)cycloprop-1-yl]methyl]propanamide] | < 10 nM |
| CCC(=O)NC[C@@H]1C[C@H]1c1cccc2c1CCO2 (relative stereo) [Example 29, (trans)-N-[[2-(2,3-dihydrobenzofuran-4-yl)cycloprop-1-yl]methyl] propanamide] | < 10 nM |
| CCCC(=O)NC[C@@H]1C[C@H]1c1cccc2c1CCO2 (relative stereo) [Example 30, (trans)-N-[[2-(2,3-dihydrobenzofuran-4-yl)cycloprop-1-yl]methyl] butanamide] | < 10 nM |
| CCC(=O)NC[C@@H]1C[C@H]1c1cccc2c1CCO2 (single isomer, unassigned) [Example 2, (-)-(trans)-N-[[2-(2,3-Dihydrobenzofuran-4-yl)cycloprop-1-yl]methyl]propanamide] | < 10 nM |
| CCC(=O)NC[C@@H]1C[C@H]1c1cccc2c1CCCO2 (single isomer, unassigned) [Example 42, (-)-(trans)-N-[[2-(3,4-dihydro-2H-1-benzopyran-5-yl)cycloprop-1-yl]methyl]propanamide] | 10 to 100 nM |
| C=CC(=O)NC[C@@H]1C[C@H]1c1cccc2c1OCCO2 (single isomer, unassigned) [Example 52] | < 10 nM |

Continued, values first:

| IC50 | Structure (SMILES) |
| --- | --- |
| 10 to 100 nM | CC(=O)NC[C@@H]1C[C@H]1c1cccc2c1OCCCO2 (relative stereo) [Example 60] |
| 100 to 250 nM | CCC(=O)NC[C@@H]1C[C@H]1c1cccc2c1CCCCO2 (relative stereo) [Example 61] |
| 10 to 100 nM | O=C(NC[C@@H]1C[C@H]1c1cccc2c1OCC2)C1CC1 (relative stereo) [Example 67] |
| < 10 nM | CCCC(=O)NC[C@@H]1C[C@H]1c1cccc2oc(C)cc12 (relative stereo) [Example 76, (trans)-N-[[2-(2-methyl-benzofuran-4-yl)cycloprop-1-yl]methyl]-butanamide] |
| 10 to 100 nM | O=C(NC[C@@H]1C[C@H]1c1cccc2ccoc12)C1CC1 (relative stereo) [Example 80, (trans)-N-[[2-(benzofuran-7-yl)cycloprop-1-yl]methyl]-cyclopropanecarboxamide] |
| < 10 nM | O=C(NC[C@@H]1C[C@H]1c1cccc2c1OCCO2)C(F)(F)F (single isomer, unassigned) [Example 54, (-)-(trans)-N-[[2-(2,3-dihydro-1,4-benzodioxin-5-yl)cycloprop-1-yl]methyl]trifluoroacetamide] |
| < 10 nM | CCC(=O)NC[C@@H]1C[C@H]1c1cccc2c1CCCO2 (single isomer, unassigned) [Example 96, (+)-(trans)-N-[[2-(3,4-dihydro-2H-1-benzopyran-5-yl)cycloprop-1-yl]methyl]propanamide] |
| < 10 nM | CCC(=O)NC[C@@H]1C[C@H]1c1cccc2c1CC(C)O2 (single isomer, unassigned; (+)) [Example 82, (+)-(trans)-N-[[2-(2-methyl-2,3-dihydrobenzofuran-4-yl)cycloprop-1-yl]methyl]propanamide] |
| < 10 nM | CCC(=O)NC[C@@H]1C[C@H]1c1cccc2c1CC(C)O2 (single isomer, unassigned; (-)) [Example 88, (-)-(trans)-N-[[^2-(2-methyl-2,3-dihydrobenzofuran-4-yl)cycloprop-1-yl]methyl]propanamide] |
| 10 to 100 nM | CCC(=O)NCC1C(c2cccc3oc(C)cc23)C1(F)F (stereo not shown) [Example 95, N-[[2-(2-Methyl-4-benzofuranyl)-3,3-difluorocyclopropanyl]-methyl]propanamide] |
